Experimental data: publication PMC5738440, “Identification and characterization of the structure–activity relationships involved in UGT1A1 inhibition by anthraquinone and dianthrone constituents of Polygonum multiflorum” (Scientific Reports, 2017)
Where two headings read alike, the source gives them in different places.

Columns and labels:
[1] = target: T1, UGT1A1 (Rattus norvegicus, UniProt Q64550); test: UGT1A1 inhibition: bilirubin glucuronidation in rat liver microsomes (RLM), enzyme inhibition kinetics; conditions: for Mode of inhibition: Lineweaver-Burk and Dixon plots
T1 sequence (Q64550 30-535): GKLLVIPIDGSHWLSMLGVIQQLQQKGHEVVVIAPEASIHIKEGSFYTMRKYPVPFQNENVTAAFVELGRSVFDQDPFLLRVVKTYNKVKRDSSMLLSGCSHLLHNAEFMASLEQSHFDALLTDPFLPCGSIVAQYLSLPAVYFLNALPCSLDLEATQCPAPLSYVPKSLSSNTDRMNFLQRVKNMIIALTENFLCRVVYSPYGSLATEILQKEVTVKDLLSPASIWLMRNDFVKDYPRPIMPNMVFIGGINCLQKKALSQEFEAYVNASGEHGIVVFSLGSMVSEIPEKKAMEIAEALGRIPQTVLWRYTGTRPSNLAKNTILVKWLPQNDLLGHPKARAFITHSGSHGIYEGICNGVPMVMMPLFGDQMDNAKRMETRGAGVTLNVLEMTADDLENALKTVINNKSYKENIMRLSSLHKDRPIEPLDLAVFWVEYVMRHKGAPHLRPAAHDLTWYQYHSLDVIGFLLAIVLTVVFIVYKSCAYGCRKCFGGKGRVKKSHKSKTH
Experimental: UGT1A1 activity assays were conducted at 37 °C in a shaking water bath[41]. Incubation mixtures (final volume, 0.2 mL) contained 0.5 mg/mL RLM, 0.1 M Tris-HCl (pH 7.4), 5 mM MgCl2, 5 mM D-saccharic acid 1,4-lactone, 3.5 mM UDPGA, and 50 mg/g protein alamethicin. Bilirubin (as a UGT1A1 substrate) and the test samples were dissolved in 100% dimethylsulfoxide (DMSO) immediately before being added to the incubation mixtures. […] The reaction was initiated by adding UDPGA after a 5-min pre-incubation at 37 °C; it was terminated after 10 min by adding 0.6 mL of ice-cold methanol: acetonitrile (1:2) containing 200 mM ascorbic acid. Proteins were precipitated by centrifugation at 13,000 × g for 30 min at 4 °C prior, and the supernatants were analyzed by UPLC.The assays were done in triplicates respectively.
Bilirubin glucuronidation was evaluated in the presence of various concentrations of bilirubin and potential inhibitors, as described above. Samples were analyzed in triplicate to determine their inhibition constants (Ki). For assays with inhibitors, the bilirubin concentration was 0.12 to 1.37 μM.
The inhibition kinetic type and parameters were determined by fitting the reaction velocities of different concentrations of test components (inhibitors) and bilirubin (substrate). Lineweaver–Burk and Dixon fitting equations were employed to determine the inhibition type, and the second plot (drawn using the slope of lines in the Lineweaver–Burk plot versus inhibitor concentrations) was used to calculate the Ki values. The results were analyzed using GraphPad Prism 5 software (GraphPad Inc., San Diego, CA, USA)[48]. […] The goodness-of-fit of the inhibition models was estimated using the F statistic, R^2 value, parameter standard error estimates, and 95% confidence intervals.

[2] = target: rUGT1A1; conditions: rUGT1A1 system, competitive; cited from earlier work
[3] = system: UGT1A1; conditions: HLM system, competitive; cited from earlier work
[4] = target: T1, UGT1A1; conditions: RLM system, competitive; cited from earlier work
[5] = Ki value, bilirubin substrate, extract concentration based on emodin content

Row | Ki [1, 5] [µM] | Mode of inhibition [1] | Ki at 10 min ([1]; rat, pH 7.4, probe bilirubin (0.12-1.37 μM), Ki value, bilirubin substrate, extract concentration based on emodin content) [µM] | Structure (SMILES) | Ki [2] [µM] | Ki [3] [µM] | Ki [4] [µM]
1 | 0.863 | – | – | Cc1cc(O)c2c(c1)C(C1c3cc(C)cc(O)c3C(=O)c3c(O)cc(O)cc31)c1cc(O)cc(O)c1C2=O (stereo not drawn) [Cis-emodin dianthrones] | – | – | –
2 | 18.6 | Mixed Type inhibition | – | O=C1c2cc(O)cc(O)c2C(=O)c2c(O)cc(CO)cc21 [Citreorosein] | – | – | –
3 | 4.29 | Non-Competitive inhibition | 4.22 | Cc1cc(O)c2c(c1)C(C1c3cc(C)cc(O)c3C(=O)c3c(OC4OC(CO)C(O)C(O)C4O)cc(O)cc31)c1cc(O)cc(O)c1C2=O (stereo not drawn) [Polygonumnolide C2] | – | – | –
4 | 12.9 | Non-Competitive inhibition | – | Cc1cc(O)c2c(c1)C(C1c3cc(C)cc(O)c3C(=O)c3c(OC4OC(CO)C(O)C(O)C4O)cc(O)cc31)c1cc(O)cc(O)c1C2=O (stereo not drawn) [Polygonumnolide C3] | – | – | –
5 | 77.4 | Un-Competitive inhibition | – | Cc1cc(O)c2c(c1)C(C1c3cc(C)cc(O)c3C(=O)c3c(OC4OC(CO)C(O)C(O)C4O)cc(O)cc31)c1cc(O)cc(O)c1C2=O (stereo not drawn) [Polygonumnolide C4] | – | – | –
6 | 1.08 | Competitive inhibition | – | Cc1cc(O)c2c(c1)C(C1c3cc(C)cc(O)c3C(=O)c3c(O)cc(O)cc31)c1cc(O)cc(O)c1C2=O (stereo not drawn) [Trans-emodin dianthrones] | – | – | –

Row | Structure (SMILES) | Ki [1, 5] [µM] | Mode of inhibition [1] | Ki at 10 min ([1]; rat, pH 7.4, probe bilirubin (0.12-1.37 μM), Ki value, bilirubin substrate, extract concentration based on emodin content) [µM] | Ki [2] [µM] | Ki [3] [µM] | Ki [4] [µM]
7 | Cc1cc(O)c2c(c1)C(=O)c1cc(O)cc(O)c1C2=O [Emodin] | 10 | Competitive inhibition | – | 4.85 ± 0.528 | 5.4 ± 0.956 | 10 ± 0.611
8 | COc1cc(O)c2c(c1)C(=O)c1cc(C)cc(O)c1C2=O [Physcion] | 94.7 | Non-Competitive inhibition | – | – | – | –
9 | O=C(O)c1cc(O)c2c(c1)C(=O)c1cccc(O)c1C2=O [Rhein] | 127 | Mixed Type inhibition | – | – | – | –
